# Columns and labels:
# [1] = target: T1, NOX4 (Homo sapiens, UniProt Q9NPH5); assay: Amplex Red/HRP ROS production assay on membranes of NOX4-overexpressing cells, concentration-response; type: biochemical
# T1 construct: membranes prepared from cells specifically overexpressing the human NOX isoform
# T1 sequence (Q9NPH5 1-578): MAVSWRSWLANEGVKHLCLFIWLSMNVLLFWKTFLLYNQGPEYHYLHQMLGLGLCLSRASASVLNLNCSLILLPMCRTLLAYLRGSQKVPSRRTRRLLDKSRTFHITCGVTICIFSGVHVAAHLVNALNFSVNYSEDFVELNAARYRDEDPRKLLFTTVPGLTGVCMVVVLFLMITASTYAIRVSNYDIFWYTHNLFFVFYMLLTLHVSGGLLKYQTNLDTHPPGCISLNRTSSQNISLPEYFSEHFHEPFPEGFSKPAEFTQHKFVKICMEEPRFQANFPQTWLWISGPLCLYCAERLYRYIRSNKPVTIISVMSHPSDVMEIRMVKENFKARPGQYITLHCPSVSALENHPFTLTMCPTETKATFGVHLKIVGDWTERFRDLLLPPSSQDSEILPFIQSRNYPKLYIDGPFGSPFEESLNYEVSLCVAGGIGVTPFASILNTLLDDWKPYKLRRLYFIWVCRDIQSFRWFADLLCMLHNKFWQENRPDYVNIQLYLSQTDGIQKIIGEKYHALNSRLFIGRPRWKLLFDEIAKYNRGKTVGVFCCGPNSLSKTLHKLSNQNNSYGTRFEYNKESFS
# [2] = target: T2, NOX1 (Homo sapiens, UniProt Q9Y5S8); assay: Amplex Red/HRP ROS production assay on membranes of NOX1-overexpressing cells, concentration-response; type: biochemical
# T2 construct: membranes prepared from cells specifically overexpressing the human NOX isoform
# T2 sequence (Q9Y5S8 1-564): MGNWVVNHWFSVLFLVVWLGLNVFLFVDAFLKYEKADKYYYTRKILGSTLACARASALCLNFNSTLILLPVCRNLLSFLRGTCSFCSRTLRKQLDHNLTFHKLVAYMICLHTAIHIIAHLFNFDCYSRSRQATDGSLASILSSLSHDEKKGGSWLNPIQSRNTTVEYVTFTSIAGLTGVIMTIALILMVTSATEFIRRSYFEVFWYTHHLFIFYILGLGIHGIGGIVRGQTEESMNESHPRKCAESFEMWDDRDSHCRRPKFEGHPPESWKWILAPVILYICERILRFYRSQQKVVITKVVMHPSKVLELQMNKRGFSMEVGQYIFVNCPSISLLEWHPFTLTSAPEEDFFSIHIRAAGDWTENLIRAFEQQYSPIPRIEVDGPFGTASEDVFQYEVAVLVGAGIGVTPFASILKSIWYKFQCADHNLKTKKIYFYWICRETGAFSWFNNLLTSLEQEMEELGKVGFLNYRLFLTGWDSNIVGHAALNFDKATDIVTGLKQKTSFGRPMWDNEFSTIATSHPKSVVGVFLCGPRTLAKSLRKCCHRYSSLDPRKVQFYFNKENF
substance,measurement,setting,value
GKT771,Ki,[1],4000 nM
same,Ki,[2],60 ± 6 nM
